This is an account of results in BindingDB's records for doi:10.1021/jm010496a (Pfizer, 2002).

SMILES strings stand for the structures.

Broadly, the IC50 is the concentration at which inhibition is half-maximal.

The experiment concerns the target Fructose-1,6-bisphosphatase 1 (Sus scrofa) (UniProt P00636). In words: Concentration required for 50% Inhibition against recombinant wild type pig enzyme (F16BP) Fructose-1,6-bisphosphatase.

Chain of Fructose-1,6-bisphosphatase 1 (Sus scrofa) (P00636 whole entry, looked up): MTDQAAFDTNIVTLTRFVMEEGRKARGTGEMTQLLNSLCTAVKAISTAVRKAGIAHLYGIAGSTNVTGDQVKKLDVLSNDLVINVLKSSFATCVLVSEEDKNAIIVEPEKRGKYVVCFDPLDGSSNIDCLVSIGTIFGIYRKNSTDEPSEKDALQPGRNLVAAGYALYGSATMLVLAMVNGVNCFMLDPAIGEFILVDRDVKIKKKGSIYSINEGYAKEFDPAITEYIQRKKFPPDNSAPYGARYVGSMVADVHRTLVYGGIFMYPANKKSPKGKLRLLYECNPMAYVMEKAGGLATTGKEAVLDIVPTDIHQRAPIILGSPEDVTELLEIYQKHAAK

With `CCOc1cc2nc(CN(C)C)nc(Nc3cccc(-c4csc(C(N)=O)n4)c3)c2cc1OCC` [4-[3-(2-Dimethylaminomethyl-6,7-diethoxy-quinazolin-4-ylamino)-phenyl]-thiazole-2-carboxylic acid amide], the IC50 was 9.5 µM.
